Source: article PMC6424957 (Scientific Reports, 2019)

How the values were obtained:
[1] = ABTS radical cation scavenging assay; details: 1 h incubation; for ABTS·+ scavenging activity, TEAC value: Trolox equivalent antioxidant capacity, ratio of slopes compound/Trolox
Procedure: This assay is based on the production of a stable dark green ABTS cation-radical (ABTS^·+) by incubating ABTS ([2,2′-azino-bis(3-eth-ylbenzothiazoline-6-sulfonic acid diammonium salt)) with potassium persulfate. […] The ABTS radical-scavenging activity of the compounds was measured according to an established method[66] with some modifications, at 30 °С in the dark; incubation time was 1 hour. […] The results were expressed as TEAC values (Trolox equivalent antioxidant capacity) calculated by dividing the slope of ABTS^·+ concentration decrease versus the antioxidant concentration by the slope of the Trolox plot.
Radical scavenging activity of the compounds was assessed using an ABTS radical decolorization assay[66] with some minor modifications. ABTS (2,2′-azino-bis-(3-ethylbenzothiazoline-6-sulfonic acid) diammonium salt) was purchased from TCI (Tokyo, Japan); potassium persulfate (di-potassium peroxodisulfate) and Trolox (6-hydroxy-2,5,7,8-tetramethychroman-2-carboxylic acid were obtained from Sigma-Aldrich Chemical Co. (St. Louis, MO, USA). Ethanol was HPLC grade. Aqueous solutions were prepared using deionized water.
Trolox was used as the antioxidant standard. A 5 mM solution of Trolox was prepared in DMSO for use as stock. Fresh working solutions of known concentrations (1–100 μM) were prepared on the day of experiments and used for calibration and as positive controls for ABTS radical cation (ABTS^•+) scavenging activity. ABTS was dissolved in deionized water to a 7 mM concentration. […] Fresh working ABTS^•+ solution was prepared for each assay.
The radical scavenging capacity of the compounds was analyzed by mixing 10 μl of compound with 240 μl of ABTS^•+ working solution. […] Ethanol blanks were run in each assay. Values were obtained from three replicates of each sample and three independent experiments.
Antioxidant capacity as a Trolox equivalent (TEAC values) was determined as the ratio between the slopes obtained from the linear correlation for concentrations of test compounds and Trolox with absorbance of ABTS radical.

[2] = Oxygen radical absorbance capacity assay (ORAC-FL); details: ORAC-FL, AAPH, fluorescein, 37 °C, pH 7.4; Trolox taken as 1
Procedure: The ability of the conjugates to reduce the amount of peroxyl radicals as another characteristic of the antioxidant activity of the compounds was determined using the oxygen radical absorbance capacity by fluorescence (ORAC-FL) method using fluorescein (FL) as a fluorescent probe. The method is based on measuring the decrease in the intensity of fluorescence with time, which characterizes the degree of decay of the fluorescent probe under the influence of peroxyl radicals. In the presence of antioxidants, the degree of decay of the fluorescent probe decreases and, accordingly, the fluorescence time increases.
The ability of compounds to scavenge peroxyl radicals was characterized by the value of the Trolox equivalent (TE, μmol of Trolox per μmol of the tested compound), which is equal to the ratio of the Trolox concentration to the tested compound concentration having the same fluorescence intensity. Peroxyl radical scavenging capacity of Trolox is taken as one (1)[67],[68].
2,2′-Azobis-(amidinopropane) dihydrochloride (AAPH), (±)-6-hydroxy-2,5,7,8-tetramethylchromane-2-carboxylic acid (Trolox) and fluorescein (FL) were purchased from Sigma-Aldrich. The reaction was carried out at 37 °C in 75 mM K,Na phosphate buffer (pH 7.4), and the final reaction mixture was 200 µL. The tested compounds and Trolox standard were dissolved in DMSO to 10 mM and further diluted in 75 mM K,Na phosphate buffer (pH 7.4). […] The blank was composed of 20 µL 75 mM K,Na phosphate buffer (pH 7.4) containing 2% (v/v) DMSO, 120 µL FL and 60 µL AAPH, and was added in each assay. Antioxidant (the test compound or Trolox, 20 µL) and FL (120 µL, final concentration: 70 nM) solutions were placed in a black 96-well microplate and were pre-incubated for 15 min at 37 °C. AAPH solution (60 µL, final concentration 12 mM) was then added rapidly using a multichannel pipette. The fluorescence was recorded every minute for 100 min. A Trolox standard curve was also obtained in each assay. All reactions were carried out in triplicate and at least three different assays were performed for each sample.
Antioxidant curves (fluorescence vs. time) were first normalized to the curve of the blank (without antioxidant) corresponding to the same assay, and the area under the fluorescence decay curve (AUC) was calculated. The net AUC corresponding to a sample was calculated by subtracting the AUC corresponding to the blank. Regression equations were calculated by plotting the net AUC against the antioxidant concentration. The ORAC value was obtained by dividing the slope of the latter curve by the slope of the Trolox curve obtained in the same assay. […] Data were expressed as means ± SEM.

[3] = molecular target: T1, equine serum butyrylcholinesterase (BChE) (Equus caballus, UniProt P81908); assay: biochemical; type: biochemical; details: mean ± SEM, n ≥ 3
T1 construct: butyrylcholinesterase (BChE, EC 3.1.1.8, from equine serum); purchased Sigma-Aldrich (Germany); host or cells: equine serum
T1 sequence (P81908 whole entry): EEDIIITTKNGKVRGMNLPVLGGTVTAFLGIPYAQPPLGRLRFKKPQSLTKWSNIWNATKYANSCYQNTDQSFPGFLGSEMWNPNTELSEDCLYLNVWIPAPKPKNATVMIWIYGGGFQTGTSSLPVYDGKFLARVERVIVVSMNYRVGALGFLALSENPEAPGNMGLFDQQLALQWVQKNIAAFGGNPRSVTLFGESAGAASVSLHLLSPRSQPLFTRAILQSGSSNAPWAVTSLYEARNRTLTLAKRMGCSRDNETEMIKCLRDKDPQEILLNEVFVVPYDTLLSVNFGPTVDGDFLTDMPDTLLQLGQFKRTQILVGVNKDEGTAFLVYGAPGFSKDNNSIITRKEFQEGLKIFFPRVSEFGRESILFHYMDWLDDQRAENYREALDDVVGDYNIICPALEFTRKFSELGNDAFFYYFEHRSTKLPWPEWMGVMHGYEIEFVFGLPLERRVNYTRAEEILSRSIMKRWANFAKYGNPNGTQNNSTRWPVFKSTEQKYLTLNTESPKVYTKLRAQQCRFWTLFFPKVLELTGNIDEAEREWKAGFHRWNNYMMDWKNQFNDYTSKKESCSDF
Procedure: (§1) Acetylcholinesterase (AChE, EC 3.1.1.7, from human erythrocyte and E. electricus (EeAChE) (type VI-S), butyrylcholinesterase (BChE, EC 3.1.1.8, from equine serum), carboxylesterase (CaE, EC 3.1.1.1, from porcine liver), acetylthiocholine iodide (ATCh), butylthiocholine iodide (BTCh), 5,5′-dithiobis-(2-nitrobenzoic acid) (DTNB), 4-nitrophenyl acetate (4-NPA), were purchased from Sigma-Aldrich (Germany).
(§2) AChE and BChE activities were measured by the Ellman method as described earlier. The assay solution consisted of 0.1 M K/Na phosphate buffer pH 7.5, 25 °C with the addition of 0.33 mM DTNB, 0.02 unit/mL of AChE or BChE, and 1 mM of substrate (ATCh or BTCh, respectively). The assays were carried out with a reagent blank containing all components except AChE or BChE to account for non-enzymatic hydrolysis of substrate. In addition, an enzyme blank was included that contained all components except substrate to account for non-substrate sulfhydryl groups. […] The assay solution consisted of 0.1 M K/Na phosphate buffer pH 8.0, 25 °C with the addition of 1 mM 4-nitrophenyl acetate and 0.02 unit/mL of CaE. Assays were carried out with a blank containing all components except CaE.
(§3) The test compounds were dissolved in DMSO; the incubation mixture contained 2% (v/v) of the solvent. […] The test compounds were added to the assay solution and preincubated at 25°C with the enzymes for 5 min followed by the addition of substrate. A parallel control was made for the assay solution with no inhibitor. […] Each experiment was performed three times. The results were expressed as the mean ± SEM. The reaction rates in the presence and absence of inhibitor were compared, and the percent of residual enzyme activity due to the presence of test compounds was calculated.

[4] = molecular target: T2, human erythrocyte acetylcholinesterase (AChE) (Homo sapiens, UniProt P22303); assay: biochemical; type: biochemical; details: mean ± SEM, n ≥ 3
T2 construct: Acetylcholinesterase (AChE, EC 3.1.1.7, from human erythrocyte); purchased Sigma-Aldrich (Germany); host or cells: human erythrocytes
T2 sequence (P22303 32-617 isoform P22303-2 limits assumed): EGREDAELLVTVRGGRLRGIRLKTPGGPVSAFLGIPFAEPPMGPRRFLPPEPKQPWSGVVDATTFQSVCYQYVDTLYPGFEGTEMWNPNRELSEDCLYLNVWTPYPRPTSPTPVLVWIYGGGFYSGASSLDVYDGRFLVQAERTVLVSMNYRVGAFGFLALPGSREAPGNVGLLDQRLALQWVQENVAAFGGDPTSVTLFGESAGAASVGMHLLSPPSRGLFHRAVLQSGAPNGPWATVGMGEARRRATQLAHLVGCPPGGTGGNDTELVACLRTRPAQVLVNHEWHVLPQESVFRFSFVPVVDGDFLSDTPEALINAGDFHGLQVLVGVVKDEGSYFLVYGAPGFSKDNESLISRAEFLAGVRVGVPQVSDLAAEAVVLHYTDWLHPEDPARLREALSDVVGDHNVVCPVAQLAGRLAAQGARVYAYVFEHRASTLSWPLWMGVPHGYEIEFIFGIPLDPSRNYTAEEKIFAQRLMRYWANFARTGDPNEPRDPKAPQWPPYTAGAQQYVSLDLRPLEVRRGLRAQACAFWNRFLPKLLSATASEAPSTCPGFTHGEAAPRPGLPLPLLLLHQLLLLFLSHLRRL
Procedure: as §1, §2, §3

[5] = molecular target: T3, Electrophorus electricus AChE (EeAChE) (Electrophorus electricus, UniProt O42275); assay: biochemical; type: biochemical
T3 construct: from human erythrocyte and E. electricus (EeAChE) (type VI-S); purchased Sigma-Aldrich (Germany) type VI-S; host or cells: Electrophorus electricus tissue
T3 sequence (O42275 24-633): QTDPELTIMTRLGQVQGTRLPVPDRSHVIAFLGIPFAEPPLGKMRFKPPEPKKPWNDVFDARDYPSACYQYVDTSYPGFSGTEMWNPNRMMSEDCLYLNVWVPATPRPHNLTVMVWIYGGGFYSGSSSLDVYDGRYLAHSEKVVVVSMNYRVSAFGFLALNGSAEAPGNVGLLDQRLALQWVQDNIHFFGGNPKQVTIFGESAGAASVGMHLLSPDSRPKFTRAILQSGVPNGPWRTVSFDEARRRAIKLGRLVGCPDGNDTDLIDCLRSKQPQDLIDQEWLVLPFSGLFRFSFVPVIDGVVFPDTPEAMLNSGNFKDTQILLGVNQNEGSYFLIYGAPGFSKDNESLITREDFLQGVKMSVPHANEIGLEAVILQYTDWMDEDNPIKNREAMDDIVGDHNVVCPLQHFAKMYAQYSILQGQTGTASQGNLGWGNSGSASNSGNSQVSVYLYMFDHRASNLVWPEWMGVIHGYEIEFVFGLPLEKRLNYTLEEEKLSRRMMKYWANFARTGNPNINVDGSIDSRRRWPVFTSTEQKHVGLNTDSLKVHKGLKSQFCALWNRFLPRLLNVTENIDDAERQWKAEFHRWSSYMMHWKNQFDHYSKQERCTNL
Procedure: as §1, §2, §3

[6] = test system: isolated rat liver mitochondria; assay: Inhibition of iron-induced lipid peroxidation (TBARs); details: read-out: IC50 of Fe3+-induced LP, LP induced by 0.5 mM Fe3+, mean ± SEM, n ≥ 3
[7] = molecular target: T4, peripheral anionic site (PAS) of EeAChE (Electrophorus electricus, UniProt O42275); type: binding; details: EeAChE 7 μM, propidium iodide 8 μM
T4 construct: from human erythrocyte and E. electricus (EeAChE) (type VI-S); purchased Sigma-Aldrich (Germany) type VI-S; host or cells: Electrophorus electricus tissue
T4 sequence (O42275 24-633): as above
Excerpt: The fluorescent assay used to evaluate competitive propidium iodide displacement from the PAS of AChE is commonly used as primary screening method of AChE pro-aggregation activity inhibitors. Propidium iodide is a selective ligand for the PAS of AChE responsible for Aβ binding.
EeAChE was used owing to its high degree of purification, high activity, and lower cost than human AChE. […] The fluorescence intensity of propidium iodide bound with AChE increases several times.
To determine the degree of displacement (% displacement) of propidium iodide from the PAS of AChE, EeAChE (final concentration 7 μM) was incubated with the test compound at a concentration of 3 and 20 μM in 1 mM Tris-HCl buffer pH 8.0, 25 °C for 15 min. Then, propidium iodide solution (final concentration 8 μM) was added, the samples were incubated for 15 min and the fluorescence spectrum (530 nm (excitation) and 600 nm (emission)) was taken. Donepezil and tacrine were used as reference compounds. The blank contained propidium iodide of the same concentration in 1 mM Tris-HCl buffer pH 8.0. The measurements were carried out in triplicate on a microplate reader FLUOStar Optima (BMG Labtech Germany).
The degree of displacement (% displacement) of propidium iodide from the peripheral anionic site of AChE was calculated by the following formula: %Displacement=100−(IFAChE+Propidium+inhibitor/IFAChE+Propidium)[…], where IFAChE + Propidium is the fluorescence intensity of the propidium associated with AChE in the absence of the test compound (taken as 100%), and IFAChE + Propidium + inhibitor is the fluorescence intensity of the propidium associated with AChE in the presence of the test compound.

[8] = molecular target: T5, porcine liver carboxylesterase (CaE) (Sus scrofa, UniProt Q29550); assay: CaE inhibition (4-nitrophenyl acetate hydrolysis); type: biochemical; details: 20 µM, mean ± SEM, n ≥ 3, n.a. = not active at 20 µM
T5 sequence (Q29550 19-566): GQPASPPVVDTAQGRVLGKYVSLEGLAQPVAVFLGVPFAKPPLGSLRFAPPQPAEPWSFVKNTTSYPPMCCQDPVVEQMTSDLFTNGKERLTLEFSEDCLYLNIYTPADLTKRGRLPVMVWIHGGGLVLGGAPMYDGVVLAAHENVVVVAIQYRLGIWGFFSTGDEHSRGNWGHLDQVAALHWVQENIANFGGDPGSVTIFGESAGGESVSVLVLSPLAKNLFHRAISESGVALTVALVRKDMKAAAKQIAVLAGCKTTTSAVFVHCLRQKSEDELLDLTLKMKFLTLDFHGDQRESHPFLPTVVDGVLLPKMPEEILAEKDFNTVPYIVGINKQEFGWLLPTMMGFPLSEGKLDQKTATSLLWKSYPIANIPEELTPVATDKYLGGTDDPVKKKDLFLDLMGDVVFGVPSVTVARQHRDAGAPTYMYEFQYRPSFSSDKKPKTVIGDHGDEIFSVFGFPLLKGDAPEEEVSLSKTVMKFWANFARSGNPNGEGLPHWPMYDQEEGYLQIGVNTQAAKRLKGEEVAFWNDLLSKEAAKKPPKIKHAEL
Procedure: as §1, §2, §3

Compound	ABTS·+ scavenging activity, TEAC value [1]	IC50 ([1]; concentration reducing ABTS·+ by 50%) [µM]	ORAC TE value [2] [µmol Trolox/ µmol comp.]	IC50 [3] [µM]	IC50 [4] [µM]	IC50 [5] [µM]	IC50 [6] [µM]	% Displacement of propidium iodide, 3 µM ([7]; compound 3 µM) [%]	% Displacement of propidium iodide, 20 µM ([7]; compound 20 µM) [%]	% inhibition of CaE at 20 µM [8]
Cc1c(C)c2c(c(C)c1O)CCC(C)(C(=O)O)O2 (stereo not drawn) [Trolox, 6-hydroxy-2,5,7,8-tetramethychroman-2-carboxylic acid, reference compound]	1.0	20.4 ± 1.7	1.0	–	–	–	–	–	–	–
Cc1ccc2c(c1)c1c(n2CCc2ccc(C)nc2)CCN(C)C1 [Dimebon, reference compound]	0.004	–	1.07 ± 0.08	5.76 ± 0.51	36.3 ± 3.59	32.4 ± 3.5	> 30	2.8 ± 0.2	6.0 ± 0.5	n.а.
